Results from ChEMBL document CHEMBL1153119, “Design and synthesis of orally-active and selective azaindane 5HT2c agonist for the treatment of obesity” (Bioorg Med Chem Lett, 2010).
Each block holds one molecule with its values, some of them ahead of it. Calls of active or inactive are those of the source. The rule behind the calls is not given here.

Assays:
[1] = molecular target: 5-hydroxytryptamine receptor 2A (Rattus norvegicus, UniProt P14842); experiment: Displacement of [125I]DOI from rat 5HT2A receptor expressed in mouse 3T3 cells; assay type: cell-based, NIH3T3
[2] = molecular target: T1, 5-hydroxytryptamine receptor 2A (Homo sapiens, UniProt P28223); experiment: Agonist activity against human 5HT2A receptor by FLIPR assay relative to 5HT; assay type: functional
[3] = molecular target: T2, 5-hydroxytryptamine receptor 2C (Homo sapiens, UniProt P28335); experiment: Agonist activity against human 5HT2C receptor by FLIPR assay; assay type: functional
T2 sequence (P28335 whole entry): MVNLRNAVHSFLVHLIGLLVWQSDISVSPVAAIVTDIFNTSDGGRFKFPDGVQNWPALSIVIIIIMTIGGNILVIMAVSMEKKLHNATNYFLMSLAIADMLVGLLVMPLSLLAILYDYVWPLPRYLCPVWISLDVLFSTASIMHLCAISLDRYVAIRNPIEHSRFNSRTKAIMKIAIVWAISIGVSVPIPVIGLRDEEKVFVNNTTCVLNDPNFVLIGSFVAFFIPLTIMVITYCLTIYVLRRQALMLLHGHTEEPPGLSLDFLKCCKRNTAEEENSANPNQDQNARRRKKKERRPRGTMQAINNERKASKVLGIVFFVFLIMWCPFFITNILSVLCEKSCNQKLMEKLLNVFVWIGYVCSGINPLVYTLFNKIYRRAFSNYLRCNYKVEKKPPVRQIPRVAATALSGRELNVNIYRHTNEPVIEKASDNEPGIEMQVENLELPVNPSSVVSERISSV

[4] = molecular target: T1, 5-hydroxytryptamine receptor 2A; experiment: Agonist activity against human 5HT2A receptor by FLIPR assay; assay type: functional
[5] = molecular target: T3, 5-hydroxytryptamine receptor 2B (Homo sapiens, UniProt P41595); experiment: Agonist activity against human 5HT2B receptor by FLIPR assay; assay type: functional
[6] = molecular target: T3, 5-hydroxytryptamine receptor 2B; experiment: Displacement of [125I]DOI from human 5HT2B receptor expressed in CHO cells; assay type: cell-based
[7] = molecular target: T4, 5-hydroxytryptamine receptor 2C (Homo sapiens) (UniProt P28335); experiment: Agonist activity against human 5HT2C receptor by FLIPR assay
T4 sequence (whole entry): T2 sequence (P28335 whole entry)

[8] = molecular target: T3, 5-hydroxytryptamine receptor 2B; experiment: Agonist activity against human 5HT2B receptor by FLIPR assay relative to 5HT; assay type: functional
[9] = molecular target: T2, 5-hydroxytryptamine receptor 2C; experiment: Antagonist activity against human 5HT2C receptor by FLIPR assay; assay type: functional
[10] = molecular target: T2, 5-hydroxytryptamine receptor 2C; experiment: Displacement of [3H]5HT from human 5HT2C receptor expressed in mouse 3T3 cells by scintillation counting; assay type: cell-based, NIH3T3
[11] = Ratio of drug uptake in CSF to free plasma in rat; assay type: ADME, organism-based; conditions: in vivo
[12] = Clearance in rat; assay type: ADME, organism-based; conditions: in vivo
[13] = Half life in monkey hepatocyte at 1 mM; assay type: ADME, Macaca mulatta, Liver; conditions: rhesus monkey, hepatocytes
[14] = Intrinsic clearance in monkey hepatocyte at 1 mM; assay type: ADME, tissue-based, Macaca mulatta, Liver; conditions: rhesus monkey, hepatocytes
[15] = Clearance in dog; assay type: ADME, organism-based, Canis lupus familiaris; conditions: in vivo
[16] = Half life in rat microsomes at 0.3 mM; assay type: ADME, Microsome
[17] = molecular target: T4, 5-hydroxytryptamine receptor 2C (Homo sapiens); experiment: Agonist activity against human 5HT2C receptor by GTPgammaS binding relative to control; assay type: functional
[18] = Half life in human microsomes at 0.3 mM; assay type: ADME, Microsome
[19] = Intrinsic clearance in rat hepatocyte at 1 mM; assay type: ADME, cell-based, Liver; conditions: hepatocytes
[20] = Half life in dog microsomes at 0.3 mM; assay type: ADME, Canis lupus familiaris, Microsome
[21] = molecular target: T2, 5-hydroxytryptamine receptor 2C; experiment: Agonist activity against human 5HT2C receptor by GTPgammaS binding; assay type: functional
[22] = Intrinsic clearance in rat microsomes at 0.3 mM; assay type: ADME, Microsome
[23] = molecular target: T1, 5-hydroxytryptamine receptor 2A; experiment: Agonist activity against 5HT2A receptor assessed as inositol phosphate accumulation; assay type: functional
[24] = Half life in rat hepatocyte at 1 mM; assay type: ADME, cell-based, Liver; conditions: hepatocytes
[25] = Half life in dog hepatocyte at 1 mM; assay type: ADME, Canis lupus familiaris, Liver; conditions: hepatocytes
[26] = Intrinsic clearance in human microsomes at 0.3 mM; assay type: ADME, Microsome
[27] = molecular target: T4, 5-hydroxytryptamine receptor 2C (Homo sapiens); experiment: Antagonist activity against 5HT2c receptor; assay type: functional
[28] = Ratio of drug uptake in brain to plasma in rat; assay type: ADME, organism-based; conditions: in vivo
[29] = Clearance in monkey; assay type: ADME, organism-based, Macaca mulatta; conditions: rhesus monkey, in vivo
[30] = Half life in human hepatocyte at 1 mM; assay type: ADME, cell-based, Liver; conditions: hepatocytes
[31] = molecular target: Voltage-gated inwardly rectifying potassium channel KCNH2 (Homo sapiens, UniProt Q12809); experiment: Inhibition of human ERG channel
[32] = molecular target: T1, 5-hydroxytryptamine receptor 2A; experiment: Antagonist activity against 5HT2A receptor; assay type: functional
[33] = molecular target: T3, 5-hydroxytryptamine receptor 2B; experiment: Agonist activity against 5HT2B receptor assessed as inositol phosphate accumulation; assay type: functional
[34] = Ratio of drug uptake in CSF to plasma in rat; assay type: ADME
[35] = Intrinsic clearance in dog microsomes at 0.3 mM; assay type: ADME, Canis lupus familiaris, Liver, Microsome
[36] = tested on: Rattus norvegicus; experiment: Antiobesity activity in Sprague-Dawley rat model assessed as reduction in food intake at 100 mg/kg, po after 2 hrs; assay type: functional; parameters: scale not given: the % may be the effect or the level left
[37] = Intrinsic clearance in dog hepatocyte at 1 mM; assay type: ADME, tissue-based, Canis lupus familiaris, Liver; conditions: hepatocytes
[38] = molecular target: T3, 5-hydroxytryptamine receptor 2B; experiment: Antagonist activity against 5HT2B receptor; assay type: functional
[39] = Intrinsic clearance in monkey microsomes at 0.3 mM; assay type: ADME, Macaca mulatta, Microsome; conditions: rhesus monkey
[40] = Intrinsic clearance in human hepatocyte at 1 mM; assay type: ADME, cell-based, Liver; conditions: hepatocytes
[41] = molecular target: T4, 5-hydroxytryptamine receptor 2C (Homo sapiens); experiment: Agonist activity against human 5HT2C receptor assessed as inositol phosphate accumulation; assay type: functional
[42] = Half life in monkey microsomes at 0.3 mM; assay type: ADME, Macaca mulatta, Microsome; conditions: rhesus monkey

Sequence of 5-hydroxytryptamine receptor 2A (Rattus norvegicus, UniProt P14842) (P14842 whole entry): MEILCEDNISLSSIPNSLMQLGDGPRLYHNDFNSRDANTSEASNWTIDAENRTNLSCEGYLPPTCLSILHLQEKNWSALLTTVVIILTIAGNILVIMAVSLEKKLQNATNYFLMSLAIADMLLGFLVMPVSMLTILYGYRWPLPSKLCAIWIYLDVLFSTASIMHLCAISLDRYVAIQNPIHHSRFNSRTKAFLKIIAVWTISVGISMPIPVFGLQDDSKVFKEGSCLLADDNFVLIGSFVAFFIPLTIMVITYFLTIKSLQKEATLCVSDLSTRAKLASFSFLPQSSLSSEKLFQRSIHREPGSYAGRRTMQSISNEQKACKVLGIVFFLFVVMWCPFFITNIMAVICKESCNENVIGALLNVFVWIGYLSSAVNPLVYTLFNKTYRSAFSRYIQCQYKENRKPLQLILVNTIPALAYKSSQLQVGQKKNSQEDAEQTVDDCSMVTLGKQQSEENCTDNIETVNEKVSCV
T3 sequence (P41595 whole entry): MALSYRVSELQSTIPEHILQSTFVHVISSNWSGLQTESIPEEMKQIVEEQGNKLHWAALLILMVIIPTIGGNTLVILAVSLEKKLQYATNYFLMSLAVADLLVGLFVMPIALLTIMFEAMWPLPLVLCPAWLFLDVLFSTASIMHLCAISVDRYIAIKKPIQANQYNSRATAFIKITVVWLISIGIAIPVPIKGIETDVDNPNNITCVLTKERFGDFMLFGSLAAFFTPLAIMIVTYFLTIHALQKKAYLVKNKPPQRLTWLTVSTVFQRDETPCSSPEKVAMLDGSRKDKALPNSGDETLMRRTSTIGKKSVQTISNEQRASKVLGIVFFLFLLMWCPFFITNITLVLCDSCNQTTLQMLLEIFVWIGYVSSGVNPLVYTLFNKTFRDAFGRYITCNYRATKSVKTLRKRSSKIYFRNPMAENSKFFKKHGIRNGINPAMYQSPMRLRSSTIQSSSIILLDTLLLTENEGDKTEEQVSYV
T1 sequence (P28223 whole entry): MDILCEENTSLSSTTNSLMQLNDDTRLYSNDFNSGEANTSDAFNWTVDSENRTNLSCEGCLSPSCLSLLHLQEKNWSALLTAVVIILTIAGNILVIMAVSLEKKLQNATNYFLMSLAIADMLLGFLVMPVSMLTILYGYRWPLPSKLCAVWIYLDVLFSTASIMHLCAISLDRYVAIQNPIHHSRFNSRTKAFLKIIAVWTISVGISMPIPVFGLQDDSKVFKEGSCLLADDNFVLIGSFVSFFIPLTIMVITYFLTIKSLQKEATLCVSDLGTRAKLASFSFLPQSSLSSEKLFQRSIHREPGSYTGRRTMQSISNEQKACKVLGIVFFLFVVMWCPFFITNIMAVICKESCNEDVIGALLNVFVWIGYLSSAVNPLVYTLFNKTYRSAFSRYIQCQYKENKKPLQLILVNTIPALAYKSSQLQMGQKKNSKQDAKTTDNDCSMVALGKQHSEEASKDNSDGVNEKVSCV
Sequence of Voltage-gated inwardly rectifying potassium channel KCNH2 (Q12809 whole entry): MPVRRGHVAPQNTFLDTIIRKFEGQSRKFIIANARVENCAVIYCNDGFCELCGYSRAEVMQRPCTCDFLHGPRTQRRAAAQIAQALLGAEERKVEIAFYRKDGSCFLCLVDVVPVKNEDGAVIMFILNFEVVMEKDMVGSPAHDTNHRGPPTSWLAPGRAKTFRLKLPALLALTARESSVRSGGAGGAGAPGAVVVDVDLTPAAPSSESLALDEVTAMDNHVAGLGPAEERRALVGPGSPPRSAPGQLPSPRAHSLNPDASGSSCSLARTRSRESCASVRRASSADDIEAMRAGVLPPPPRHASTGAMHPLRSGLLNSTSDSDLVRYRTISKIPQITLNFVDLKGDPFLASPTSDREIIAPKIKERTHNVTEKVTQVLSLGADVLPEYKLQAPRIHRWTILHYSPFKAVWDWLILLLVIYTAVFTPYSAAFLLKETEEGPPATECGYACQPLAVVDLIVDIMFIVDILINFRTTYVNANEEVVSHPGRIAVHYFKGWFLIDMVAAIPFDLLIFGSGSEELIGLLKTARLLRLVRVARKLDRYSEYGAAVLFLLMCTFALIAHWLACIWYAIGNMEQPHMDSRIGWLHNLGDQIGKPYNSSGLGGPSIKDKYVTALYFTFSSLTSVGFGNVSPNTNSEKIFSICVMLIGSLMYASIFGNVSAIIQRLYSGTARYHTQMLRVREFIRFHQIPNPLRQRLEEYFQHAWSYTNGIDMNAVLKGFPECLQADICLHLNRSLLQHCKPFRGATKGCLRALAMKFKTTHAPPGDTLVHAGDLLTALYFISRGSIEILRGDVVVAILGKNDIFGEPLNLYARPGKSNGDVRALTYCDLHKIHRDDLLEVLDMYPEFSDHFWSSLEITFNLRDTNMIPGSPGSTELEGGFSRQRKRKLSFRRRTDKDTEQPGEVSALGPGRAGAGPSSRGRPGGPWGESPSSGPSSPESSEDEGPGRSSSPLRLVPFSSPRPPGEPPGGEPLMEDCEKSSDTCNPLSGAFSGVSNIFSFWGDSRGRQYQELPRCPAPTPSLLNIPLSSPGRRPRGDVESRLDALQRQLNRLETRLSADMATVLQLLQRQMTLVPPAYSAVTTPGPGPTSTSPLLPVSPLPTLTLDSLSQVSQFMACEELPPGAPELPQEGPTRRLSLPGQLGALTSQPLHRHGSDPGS

Compound: Clc1ccccc1O[C@H]1CCCc2ccc(N3CCNCC3)nc21
Ki [1]: 0.0007 µM
Activity [2]: 93%
EC50 [3]: 0.01 µM
EC50 [4]: 0.07 µM
EC50 [5]: 0.397 µM
Ki ([6]; cho): Not Active
Activity [7]: 97%

EC50 [3]: 1.2 µM
Activity [7]: 53%
Compound: Clc1cccc(COc2nc(N3CCNCC3)nc3sccc23)c1

Compound: c1cc2occc2c(N2CCNCC2)n1
EC50 [3]: 0.164 µM
Activity [7]: 67%

Compound: Clc1ccccc1O[C@@H]1CCc2ccc(N3CCNCC3)nc21
Ki [1]: 0.041 µM
Activity [8]: 21%
Activity [2]: 46%
EC50 [3]: 0.022 µM
EC50 [4]: 1.31 µM
EC50 [5]: 0.748 µM
Ki ([6]; cho): Not Active
Activity [7]: 97%

EC50 [3]: 2.6 µM
Activity [7]: 43%
Compound: Clc1cccc(COc2nc(N3CCNCC3)nc3ccsc23)c1

Compound: c1cc2sccc2c(N2CCNCC2)n1
EC50 [3]: 0.187 µM
Activity [7]: 60%

Compound: Cn1cnc2nc(OCc3ccccc3)nc(N3CCNCC3)c21
IC50 [9]: > 0.5 µM

Compound: Clc1nc(N2CCNCC2)nc2sccc12
EC50 [3]: 0.616 µM
Activity [7]: 69%

Compound: Brc1cn2ccnc2c(N2CCNCC2)n1
EC50 [3]: 1.36 µM
Activity [7]: 79%

IC50 [9]: 0.41 µM
Compound: Clc1cccc(COc2nc(N3CCNCC3)nc3nc[nH]c23)c1

Compound: c1nc(N2CCNCC2)c2cc[nH]c2n1
EC50 [3]: 0.755 µM
Activity [7]: 91%

Compound: c1ccc2c(N3CCNCC3)nccc2c1
IC50 [9]: 0.024 µM

Compound: c1nc(N2CCNCC2)c2ccsc2n1
EC50 [3]: 0.53 µM
Activity [7]: 74%

Compound: COc1nc(N2CCNCC2)nc2c1CCCC2
EC50 [3]: 5 µM
Activity [7]: 53%

Compound: Cc1cc2c(N3CCNCC3)ncnc2o1
EC50 [3]: 0.66 µM
Activity [7]: 45%

Compound: Fc1cccc(O[C@H]2CCc3ccc(N4CCNCC4)nc32)c1
Ki [10]: 0.003 µM

Compound: C[C@@H]1CNCCN1c1ccc2c(n1)[C@@H](OCc1cc(F)ccc1F)CC2
Ki [1]: 0.016 µM
Activity [2]: 18%
EC50 [3]: 0.001 µM
EC50 [4]: 1.43 µM
Ki ([6]; read-out: Ki): 0.083 µM
Activity [7]: 96%

IC50 [9]: 0.71 µM
Compound: Clc1nc(N2CCNCC2)c2c3c(sc2n1)CCCC3

Compound: c1nc(N2CCNCC2)c2sccc2n1
EC50 [3]: 0.4 µM
Activity [7]: 81%

Compound: Clc1ccccc1O[C@@H]1CCCc2ccc(N3CCNCC3)nc21
Ki [1]: 0.002 µM
Activity [2]: 76%
EC50 [3]: 0.12 µM
EC50 [4]: 0.578 µM
EC50 [5]: 0.998 µM
Ki ([6]; cho): Not Active
Activity [7]: 95%

Compound: CCCn1cnc2c(N3CCNCC3)ncnc21
EC50 [3]: 1.25 µM
Activity [7]: 55%

Compound: Fc1ccc(F)c(CO[C@H]2CCc3ccc(N4CCNCC4)nc32)c1
Ki [1]: 0.015 µM
Activity [8]: 18%
Activity [2]: 13%
EC50 [3]: 0.0014 µM
EC50 [4]: 1.5 µM
EC50 [5]: 2.7 µM
Ki ([6]; read-out: Ki): 0.153 µM
Activity [7]: 91%

Compound: Clc1ccccc1O[C@H]1CCc2ccc(N3CCNCC3)nc21
Ki [1]: 0.001 µM
Activity [8]: 58%
Activity [2]: 87%
EC50 [3]: 0.0001 µM
EC50 [4]: 0.087 µM
EC50 [5]: 0.3 µM
Ki ([6]; cho): Not Active
Activity [7]: 92%

Compound: Clc1ccccc1OC1CCc2ccc(N3CCNCC3)nc21 (stereo not given)
Ki [1]: 0.0038 µM
Activity [8]: 50%
Activity [2]: 75%
EC50 [3]: 0.0001 µM
EC50 [4]: 0.236 µM
EC50 [5]: 0.187 µM
Ki ([6]; cho): Not Active
Activity [7]: 93%

Compound: c1cc2c(nc1N1CCNCC1)CCCC2
Ki [1]: 0.021 µM
Activity [8]: Active
Activity [2]: 60%
EC50 [3]: 0.025 µM
EC50 [4]: 2.2 µM
Ki ([6]; cho): Not Active
Activity [7]: 93%

Activity [7]: 31%
Compound: c1ccc2c(c1)sc1c(N3CCNCC3)ncnc12

IC50 [9]: 0.54 µM
Compound: Clc1nc(N2CCNCC2)c2scc(-c3ccccc3)c2n1

Ki [10]: 0.0006 µM
Compound: C[C@@H]1CNCCN1c1ccc2c(n1)[C@@H](Oc1ccccc1Cl)CC2

IC50 [9]: 0.126 µM
Compound: Cc1csc2c(OCc3cccc(Cl)c3)nc(N3CCNCC3)nc12

Compound: Cc1ccc(F)cc1CO[C@H]1CCc2ccc(N3CCNC[C@H]3C)nc21
ratio [11]: 0.5
clearance [12]: 5.4 L/h/kg
half-life [13]: 53 min
Ki [1]: 0.0044 µM
CLint scaled [14]: 2.58 L/h/kg
clearance [15]: 2.04 L/h/kg
half-life [16]: 2.2 min
Activity [17]: 86%
IC50 [9]: ≤ 0.086 µM
half-life [18]: 44 min
CLint scaled [19]: 24 L/h/kg
half-life [20]: 24 min
EC50 [21]: 0.0019 µM
Emax [8]: 28%
CLint scaled [22]: 90 L/h/kg
Activity [23]: inactive
half-life [24]: 4.7 min
half-life [25]: 64 min
CLint scaled [26]: 1.2 L/h/kg
Kb [27]: inactive
ratio [28]: 3.4
EC50 [3]: 0.0034 µM
clearance [29]: 0.516 L/h/kg
half-life [30]: 170 min
EC50 [4]: 0.63 µM
IC50 [31]: 3.9 µM
EC50 [5]: 0.566 µM
Kb [32]: 0.062 µM
EC50 [33]: > 10 µM
Kp [34]: 0.015
CLint scaled [35]: 3.54 L/h/kg
Activity [36]: -74%
CLint scaled [37]: 2.46 L/h/kg
Kb [38]: 0.004 µM
CLint scaled [39]: 21 L/h/kg
CLint scaled [40]: 0.306 L/h/kg
Activity [41]: inactive
half-life [42]: 12 min
